Experimental findings from BindingDB's records for doi:10.1016/j.ejmech.2020.112893 (China Pharmaceutical University, 2021) are described below.

A short description of the experiment: Antagonist activity at PAR4 in human platelet-rich plasma assessed as inhibition of gamma-thrombin-induced platelet aggregation preincubated for 5 mins followed by gamma-thrombin stimulation.

Broadly, the IC50 is the concentration that gives 50% inhibition. In the case of `CSc1nn2cc(-c3cc4ccccc4o3)nc2s1` [US9862730, Example 1], the IC50 was determined as 2600 nM.
Turning to `COc1cc(OCc2nc(-c3ccc(C(=O)N(C)C)cc3)sc2C)c2cc(-c3cn4nc(OC)sc4n3)oc2c1` [US9688695, 66], the IC50 worked out at 2.1 nM.
